Molecules are shown by their SMILES. Starred links: 1 amine or outer side, 2 acyl side, 3 side chain; linkers in the order of their positions; H or OH if unused. Positions of bridges follow the written chain, without caps; N, C: chain ends. Non-standard residues stand in square brackets, D forms with d. Residues, ends and D or L forms follow the SMILES beside them. Ala(morpholin-4-yl) = N[C@@H](CN1CCOCC1)C(=O)O; X59 = O=C([C@H](Cc1c(F)cc(F)cc1F)N[*:1])[*:2]; Phe(4-CH2NH2) = NCc1ccc(C[C@H](N)C(=O)O)cc1; Bip = N[C@@H](Cc1ccc(-c2ccccc2)cc1)C(=O)O; Phe(4-F) = N[C@@H](Cc1ccc(F)cc1)C(=O)O; Val(3-OH) = CC(C)(O)[C@H](N)C(=O)O; h4Pal = N[C@@H](CCc1ccncc1)C(=O)O; 2Pal = N[C@@H](Cc1ccccn1)C(=O)O; 3Pal = N[C@@H](Cc1cccnc1)C(=O)O; 4Pal = N[C@@H](Cc1ccncc1)C(=O)O; hLeu = CC(C)CC[C@H](N)C(=O)O; Sar = CNCC(=O)O

TNFα, sequence (P01375 77-233 limits assumed): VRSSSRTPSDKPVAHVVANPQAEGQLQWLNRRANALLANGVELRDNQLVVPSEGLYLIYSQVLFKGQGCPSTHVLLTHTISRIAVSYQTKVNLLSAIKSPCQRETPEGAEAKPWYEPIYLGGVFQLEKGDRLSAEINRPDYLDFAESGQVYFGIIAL

One test addresses TNFα (Homo sapiens, UniProt P01375). The test can be described thus: TNF-Induced HEK-Blue Assay.
Details: not given
In kind it is cell-based.
Regarding `CC[C@H](C)[C@@H]1NC(=O)[C@@H]2CCCN2C(=O)[C@H](C(C)C)NC(=O)[C@H](CCCNC(=N)N)NC(=O)[C@H](CC(=O)O)NC(=O)[C@@H]2CCCN2C(=O)CN(C)C(=O)[C@H](Cc2ccc(-c3ccccc3)cc2)NC(=O)[C@H](Cc2ccc(-c3ccccc3)cc2)NC(=O)[C@H](Cc2ccccc2)NC(=O)CSC[C@@H](C(=O)NCC(N)=O)NC(=O)[C@H](CC(C)C)NC(=O)[C@H](CCCNC(=N)N)NC1=O` [Example 20] ({CH2CO}-F[Bip][Bip][Sar]PDRVPIRLCG-NH2; thioether N-13), the IC50 (commonly the concentration at which inhibition is half-maximal) was in the range of 200 to 2000 nM.

The same test, now with this note: HEK-Blue-CD40L cells, NF-kB-driven secreted alkaline phosphatase reporter; TNFα 0.5 ng/ml; 18 h; read-out: TNF induced HEK-Blue assay IC50 value.
Regarding `CC(C)C[C@@H]1NC(=O)[C@H](CCCNC(=N)N)NC(=O)[C@H](C(C)C)NC(=O)CN(C)C(=O)[C@H](C(C)C)NC(=O)[C@H](CCCNC(=N)N)NC(=O)[C@H](CC(=O)O)NC(=O)[C@@H]2CCCN2C(=O)CN(C)C(=O)[C@H](Cc2ccc(-c3ccccc3)cc2)NC(=O)[C@H](Cc2ccc(-c3ccccc3)cc2)NC(=O)[C@H](Cc2ccccc2)NC(=O)CSC[C@@H](C(=O)NCC(N)=O)NC1=O` [Example 16] ({CH2CO}-F[Bip][Bip][Sar]PDRV[Sar]VRLCG-NH2; thioether N-13), the half-inhibitory concentration (IC50) lay within 200 to 2000 nM. Still for that read-out and setting: the same measure for `CC(C)C[C@@H]1NC(=O)[C@H](CCCNC(=N)N)NC(=O)[C@H](C(C)C)NC(=O)[C@H](C(C)C)NC(=O)[C@H](C(C)C)NC(=O)[C@H](CCCNC(=N)N)NC(=O)[C@H](CC(=O)O)NC(=O)[C@@H]2CCCN2C(=O)CN(C)C(=O)[C@H](Cc2ccc(-c3ccccc3)cc2)NC(=O)[C@H](Cc2ccc(-c3ccccc3)cc2)NC(=O)[C@H](Cc2ccccc2)NC(=O)CSC[C@@H](C(=O)NCC(N)=O)NC1=O` [Example 17] ({CH2CO}-F[Bip][Bip][Sar]PDRVVVRLCG-NH2; thioether N-13): 200 to 2000 nM.

Consider `CC(C)C[C@@H]1NC(=O)[C@H](CCC(N)=O)NC(=O)[C@H](C(C)C)NC(=O)[C@@H]2CCCN2C(=O)[C@H](C(C)C)NC(=O)[C@H](CCCNC(=N)N)NC(=O)[C@H](CC(=O)O)NC(=O)[C@@H]2CCCN2C(=O)CN(C)C(=O)[C@H](Cc2ccc(-c3ccccc3)cc2)NC(=O)[C@H](Cc2ccc(-c3ccccc3)cc2)NC(=O)[C@H](Cc2ccccc2)NC(=O)CSC[C@@H](C(=O)NCC(N)=O)NC1=O` [Example 18] ({CH2CO}-F[Bip][Bip][Sar]PDRVPVQLCG-NH2; thioether N-13), for which the half-maximal inhibitory concentration (IC50) was 200 to 2000 nM. The same measure, in the same setting: the same measure for `CC[C@H](C)[C@@H]1NC(=O)[C@H](C(C)C)NC(=O)[C@@H]2CCCN2C(=O)[C@H](C(C)C)NC(=O)[C@H](CCCNC(=N)N)NC(=O)[C@H](CC(=O)O)NC(=O)[C@H](Cc2ccc(O)cc2)NC(=O)CN(C)C(=O)[C@H](Cc2ccc(-c3ccccc3)cc2)NC(=O)[C@H](Cc2ccc(-c3ccccc3)cc2)NC(=O)[C@H](Cc2ccccc2)NC(=O)CSC[C@@H](C(=O)NCC(N)=O)NC(=O)[C@H](CC(C)C)NC1=O` [Example 19] ({CH2CO}-F[Bip][Bip][Sar]YDRVPVILCG-NH2; thioether N-13): 200 to 2000 nM. Still for that read-out and setting: the same measure for `CC(C)C[C@@H]1NC(=O)[C@H](CCCNC(=N)N)NC(=O)[C@H](CC(C)C)NC(=O)[C@@H]2CCCN2C(=O)[C@H](C(C)C)NC(=O)[C@H](CCCNC(=N)N)NC(=O)[C@H](CC(=O)O)NC(=O)[C@@H]2CCCN2C(=O)CN(C)C(=O)[C@H](Cc2ccc(-c3ccccc3)cc2)NC(=O)[C@H](Cc2ccc(-c3ccccc3)cc2)NC(=O)[C@H](Cc2ccccc2)NC(=O)CSC[C@@H](C(=O)NCC(N)=O)NC1=O` [Example 21] ({CH2CO}-F[Bip][Bip][Sar]PDRVPLRLCG-NH2; thioether N-13): 200 to 2000 nM; for `CC(C)C[C@@H]1NC(=O)[C@H](CCCNC(=N)N)NC(=O)[C@H](C(C)C)NC(=O)[C@@H]2CCCN2C(=O)[C@H](Cc2ccc(CN)cc2)NC(=O)[C@H](CCCNC(=N)N)NC(=O)[C@H](CC(=O)O)NC(=O)[C@@H]2CCCN2C(=O)CN(C)C(=O)[C@H](Cc2ccc(-c3ccccc3)cc2)NC(=O)[C@H](Cc2ccc(-c3ccccc3)cc2)NC(=O)[C@H](Cc2ccccc2)NC(=O)CSC[C@@H](C(=O)NCC(N)=O)NC1=O` [Example 22] ({CH2CO}-F[Bip][Bip][Sar]PDR[Phe(4-CH2NH2)]PVRLCG-NH2; thioether N-13): 200 to 2000 nM; for `CC(C)C[C@@H]1NC(=O)[C@H](CCCNC(=N)N)NC(=O)[C@H](C(C)C)NC(=O)[C@@H]2CCCN2C(=O)[C@H](Cc2ccc(F)cc2)NC(=O)[C@H](CCCNC(=N)N)NC(=O)[C@H](CC(=O)O)NC(=O)[C@@H]2CCCN2C(=O)CN(C)C(=O)[C@H](Cc2ccc(-c3ccccc3)cc2)NC(=O)[C@H](Cc2ccc(-c3ccccc3)cc2)NC(=O)[C@H](Cc2ccccc2)NC(=O)CSC[C@@H](C(=O)NCC(N)=O)NC1=O` [Example 23] ({CH2CO}-F[Bip][Bip][Sar]PDR[Phe(4-F)]PVRLCG-NH2; thioether N-13): 200 to 2000 nM. Still for that read-out and setting: the same measure for `CC(C)C[C@@H]1NC(=O)[C@H](CCCNC(=N)N)NC(=O)[C@H](C(C)C)NC(=O)[C@@H]2CCCN2C(=O)[C@H](CCc2ccncc2)NC(=O)[C@H](CCCNC(=N)N)NC(=O)[C@H](CC(=O)O)NC(=O)[C@@H]2CCCN2C(=O)CN(C)C(=O)[C@H](Cc2ccc(-c3ccccc3)cc2)NC(=O)[C@H](Cc2ccc(-c3ccccc3)cc2)NC(=O)[C@H](Cc2ccccc2)NC(=O)CSC[C@@H](C(=O)NCC(N)=O)NC1=O` [Example 24] ({CH2CO}-F[Bip][Bip][Sar]PDR[h4Pal]PVRLCG-NH2; thioether N-13): 200 to 2000 nM. Regarding `CC(C)C[C@@H]1NC(=O)[C@H](CCCNC(=N)N)NC(=O)[C@H](C(C)C)NC(=O)[C@@H]2CCCN2C(=O)[C@H](Cc2ccncc2)NC(=O)[C@H](CCCNC(=N)N)NC(=O)[C@H](CC(=O)O)NC(=O)[C@@H]2CCCN2C(=O)CN(C)C(=O)[C@H](Cc2ccc(-c3ccccc3)cc2)NC(=O)[C@H](Cc2ccc(-c3ccccc3)cc2)NC(=O)[C@H](Cc2ccccc2)NC(=O)CSC[C@@H](C(=O)NCC(N)=O)NC1=O` [Example 25] ({CH2CO}-F[Bip][Bip][Sar]PDR[4Pal]PVRLCG-NH2; thioether N-13), the IC50 was in the range of 200 to 2000 nM. Same read-out and setting: the same measure for `CC(C)C[C@@H]1NC(=O)[C@H](CCCNC(=N)N)NC(=O)[C@H](C(C)C)NC(=O)[C@@H]2CCCN2C(=O)[C@H](Cc2cccnc2)NC(=O)[C@H](CCCNC(=N)N)NC(=O)[C@H](CC(=O)O)NC(=O)[C@@H]2CCCN2C(=O)CN(C)C(=O)[C@H](Cc2ccc(-c3ccccc3)cc2)NC(=O)[C@H](Cc2ccc(-c3ccccc3)cc2)NC(=O)[C@H](Cc2ccccc2)NC(=O)CSC[C@@H](C(=O)NCC(N)=O)NC1=O` [Example 26] ({CH2CO}-F[Bip][Bip][Sar]PDR[3Pal]PVRLCG-NH2; thioether N-13): 200 to 2000 nM; for `CC(C)C[C@@H]1NC(=O)[C@H](CCCNC(=N)N)NC(=O)[C@H](C(C)C)NC(=O)[C@@H]2CCCN2C(=O)[C@H](C(C)C)NC(=O)[C@H](CCCNC(=N)N)NC(=O)[C@H](CC(=O)O)NC(=O)[C@@H]2CCCN2C(=O)CN(C)C(=O)[C@H](Cc2ccc(-c3ccccc3)cc2)NC(=O)[C@H](Cc2ccc(-c3ccccc3)cc2)NC(=O)[C@H](C(C)(C)O)NC(=O)CSC[C@@H](C(=O)NCC(N)=O)NC1=O` [Example 27] ({CH2CO}-[Val(3-OH)][Bip][Bip][Sar]PDRVPVRLCG-NH2; thioether N-13): 50 to 200 nM; for `CC(C)CC[C@@H]1NC(=O)CSC[C@@H](C(=O)NCC(N)=O)NC(=O)[C@H](CC(C)C)NC(=O)[C@H](CCCNC(=N)N)NC(=O)[C@H](C(C)C)NC(=O)[C@@H]2CCCN2C(=O)[C@H](C(C)C)NC(=O)[C@H](CCCNC(=N)N)NC(=O)[C@H](CC(=O)O)NC(=O)[C@@H]2CCCN2C(=O)CN(C)C(=O)[C@H](Cc2ccc(-c3ccccc3)cc2)NC(=O)[C@H](Cc2ccc(-c3ccccc3)cc2)NC1=O` [Example 28] ({CH2CO}-[hLeu][Bip][Bip][Sar]PDRVPVRLCG-NH2; thioether N-13): 200 to 2000 nM. Same read-out and setting: the result for `CC(C)C[C@@H]1NC(=O)[C@H](CCCNC(=N)N)NC(=O)[C@H](C(C)C)NC(=O)[C@@H]2CCCN2C(=O)[C@H](C(C)C)NC(=O)[C@H](CCCNC(=N)N)NC(=O)[C@H](CC(=O)O)NC(=O)[C@@H]2CCCN2C(=O)CN(C)C(=O)[C@H](Cc2ccc(-c3ccccc3)cc2)NC(=O)[C@H](Cc2ccc(-c3ccccc3)cc2)NC(=O)[C@H](Cc2cccnc2)NC(=O)CSC[C@@H](C(=O)NCC(N)=O)NC1=O` [Example 29] ({CH2CO}-[3Pal][Bip][Bip][Sar]PDRVPVRLCG-NH2; thioether N-13) reads 200 to 2000 nM. Still for that read-out and setting: the result for `CC(C)C[C@@H]1NC(=O)[C@H](CCCNC(=N)N)NC(=O)[C@H](C(C)C)NC(=O)[C@@H]2CCCN2C(=O)[C@H](C(C)C)NC(=O)[C@H](CCCNC(=N)N)NC(=O)[C@H](CC(=O)O)NC(=O)[C@@H]2CCCN2C(=O)CN(C)C(=O)[C@H](Cc2ccc(-c3ccccc3)cc2)NC(=O)[C@H](Cc2ccc(-c3ccccc3)cc2)NC(=O)[C@H](Cc2ccccn2)NC(=O)CSC[C@@H](C(=O)NCC(N)=O)NC1=O` [Example 30] ({CH2CO}-[2Pal][Bip][Bip][Sar]PDRVPVRLCG-NH2; thioether N-13) reads 200 to 2000 nM; that for `CC(C)C[C@@H]1NC(=O)[C@H](CCCNC(=N)N)NC(=O)[C@H](C(C)C)NC(=O)[C@@H]2CCCN2C(=O)[C@H](C(C)C)NC(=O)[C@H](CCCNC(=N)N)NC(=O)[C@H](CC(=O)O)NC(=O)[C@@H]2CCCN2C(=O)CN(C)C(=O)[C@H](Cc2ccc(-c3ccccc3)cc2)NC(=O)[C@H](Cc2ccc(-c3ccccc3)cc2)NC(=O)[C@H](Cc2c(F)cc(F)cc2F)NC(=O)CSC[C@@H](C(=O)NCC(N)=O)NC1=O` [Example 31] ({CH2CO}-[X59][Bip][Bip][Sar]PDRVPVRLCG-NH2; thioether N-13), 200 to 2000 nM.

As to `CC(C)C[C@@H]1NC(=O)[C@H](CCCNC(=N)N)NC(=O)[C@H](C(C)C)NC(=O)[C@@H]2CCCN2C(=O)[C@H](C(C)C)NC(=O)[C@H](CCCNC(=N)N)NC(=O)[C@H](CC(=O)O)NC(=O)[C@@H]2CCCN2C(=O)CN(C)C(=O)[C@H](Cc2ccc(-c3ccccc3)cc2)NC(=O)[C@H](Cc2ccc(-c3ccccc3)cc2)NC(=O)[C@H](CN2CCOCC2)NC(=O)CSC[C@@H](C(=O)NCC(N)=O)NC1=O` [Example 32] ({CH2CO}-[Ala(morpholin-4-yl)][Bip][Bip][Sar]PDRVPVRLCG-NH2; thioether N-13), the half-maximal inhibitory concentration (IC50) lay in the range of 50 to 200 nM.

For the origin of these results see patent US20250145665A1, “MACROCYCLIC PEPTIDES USEFUL AS MODULATORS OF TNF ALPHA” (Bristol-Myers Squibb Company, priority 2023, published 2025).
